Holding throughout (format): nucleic-acid assay
Assay [1] has as its system CTG repeat expansion. The assay is described as follows: Binding affinity to dsDNA CTG/CTG triad (unknown origin) assessed as change in melting temperature by […]. A general note: ITC needs no label: the signal is the heat of the interaction.
Assay [2] concerns CTG repeat expansion. In words: Binding affinity to dsDNA CTG/CTG triad (unknown origin) assessed as melting temperature at 50 uM […].
Assay [3] relates to CGG repeat expansion. The assay is described as follows: Binding affinity to dsDNA CGG/CGG triad (unknown origin) assessed as increase in band intensity at 50 uM by circular dichroism analysis. A general note: Circular dichroism is widely used to follow secondary structure.
Assay [4] relates to CCG repeat expansion. In words: Binding affinity to dsDNA CCG/CCG motif (unknown origin) assessed as change in melting temperature at 50 uM […].
Assay [5] concerns TTT/ATA motif. In words: Binding affinity to dsDNA TTT/ATA motif (unknown origin) assessed as change in melting temperature at 50 uM […].
Assay [6] has as its system CAG/CTG motif. In words: Binding affinity to dsDNA CAG/CTG motif (unknown origin) assessed as change in melting temperature at 50 uM […].
Assay [7] concerns CTG repeat expansion. The assay is described as follows: Binding affinity to (CTG)9 repeat DNA (unknown origin) assessed as increase in band intensity at 20 to 60 uM by circular dichroism analysis. The note with it: dose 20-60 µM.
Assay [8] relates to CTG repeat expansion. In words: Binding affinity to dsDNA CTG/CTG triad (unknown origin) assessed as increase in band intensity by circular dichroism analysis. The following applies: dose 20-60 µM.
Assay [9] relates to CAG repeat expansion. In words: Binding affinity to dsDNA CAG/CAG motif (unknown origin) assessed as melting temperature at 50 uM […] (reference value: 21.8 +/-0.2 degreeC).
Assay [10] deals with CCG/CGG motif. The assay is described as follows: Binding affinity to dsDNA CCG/CGG motif (unknown origin) assessed as melting temperature at 50 uM […] (reference value: 44.8 +/-0.5 degreeC).
Assay [11] has as its system CAG repeat expansion. In words: Binding affinity to dsDNA CAG/CAG motif (unknown origin) assessed as change in melting temperature at 50 uM […].
In assay [12] the test system is CAG repeat expansion. In words: Binding affinity to dsDNA CAG/CAG triad (unknown origin) assessed as increase in band intensity at 50 uM by circular dichroism analysis.
The test system of assay [13] is CGG repeat expansion. The assay is described as follows: Binding affinity to dsDNA CGG/CGG triad (unknown origin) measured upto 50 mins by ITC analysis.
The test system of assay [14] is CTG repeat expansion. In words: Binding affinity to dsDNA CTG/CTG triad (unknown origin) assessed as decrease in imino proton signals by NMR analysis.
In assay [15] the test system is CCG repeat expansion. The assay is described as follows: Binding affinity to dsDNA CCG/CCG motif (unknown origin) assessed as melting temperature at 50 uM […] (reference value: 21.6 +/-0.2 degreeC).
Assay [16] relates to CTG repeat expansion. The assay is described as follows: Binding affinity to dsDNA CTG/CTG motif (unknown origin) assessed as change in enthalpy measured every 2 mins by ITC analysis.
For assay [17], the system named is CGG repeat expansion. In words: Binding affinity to dsDNA CGG/CGG motif (unknown origin) assessed as change in melting temperature at 50 uM […].
The subject of assay [18] is CTG repeat expansion. The assay is described as follows: Binding affinity to dsDNA CTG/CTG motif (unknown origin) assessed as change in entropy measured every 2 mins by ITC analysis.
The test system of assay [19] is CAG/CTG motif. The assay is described as follows: Binding affinity to dsDNA CAG/CTG motif (unknown origin) assessed as melting temperature at 50 uM […] (reference value: 38.5 +/-0.4 degreeC).
In assay [20] the test system is CTG repeat expansion. In words: Binding affinity to dsDNA CTG/CTG triad (unknown origin) assessed as increase in band intensity at 50 uM by circular dichroism analysis.
Assay [21] deals with CTG repeat expansion. In words: Binding affinity to dsDNA CTG/CTG motif (unknown origin) assessed as dissociation constant measured every 2 mins by ITC analysis.
In assay [22] the test system is CCG repeat expansion. In words: Binding affinity to dsDNA CCG/CCG triad (unknown origin) assessed as increase in band intensity at 50 uM by circular dichroism analysis.
Assay [23] deals with CTG repeat expansion. In words: Binding affinity to dsDNA CTG/CTG motif (unknown origin) assessed as gibbs free energy change measured every 2 mins by ITC analysis.
Assay [24] deals with CCG/CGG motif. The assay is described as follows: Binding affinity to dsDNA CCG/CGG motif (unknown origin) assessed as change in melting temperature at 50 uM […].
The subject of assay [25] is TTT/ATA motif. The assay is described as follows: Binding affinity to dsDNA TTT/ATA motif (unknown origin) assessed as melting temperature at 50 uM […] (reference value: 16.6 +/-0.2 degreeC).
For assay [26], the system named is CGG repeat expansion. In words: Binding affinity to dsDNA CGG/CGG motif (unknown origin) assessed as melting temperature at 50 uM […] (reference value: 28.2 +/-0.3 degreeC).

pKd: −log10 of the molar value. Calls of active or inactive are those of the source. The calls are words filed in the database; no cut-off is given here.

This is an account of results in ChEMBL document CHEMBL6083241, “The heterodimer of 2-amino-1,8-naphthyridine and 3-aminoisoquinoline binds to the CTG/CTG triad via hydrogen bonding” (Bioorg Med Chem Lett, 2024).

As usually defined, the ΔTm is the change in melting temperature against a reference sample. What is called pKd is the negative decadic logarithm of the Kd, by convention in mol/L.

As for `NCCCOC(=O)Nc1cc2ccccc2cn1`, in assay [1], the ΔTm stood at 0.3 °C. The Tm in assay [2] was found to be 28.1 °C.

As to `Cc1ccc2ccc(NC(=O)OCCCN)nc2n1`, the ΔTm in assay [1] was 0.2 °C. Moreover, the Tm in [2] is 28 °C.

In the case of `Cc1ccc2ccc(NC(=O)OCCCNCCCOC(=O)Nc3ccccn3)nc2n1`, in [1], the ΔTm worked out at 0 °C. Further, in assay [2], the Tm is 27.8 °C.

Turning to `Cc1ccc2ccc(NC(=O)OCCCNCCCOC(=O)Nc3ccc4ccccc4n3)nc2n1`, in assay [1], the ΔTm was -0.1 °C. In assay [2], the Tm came out at 27.7 °C.

`Cc1ccc2ccc(NC(=O)OCCCNCCCOC(=O)Nc3ccc4ccc(C)nc4n3)nc2n1`: the ΔTm in [1] was 0.1 °C. Besides, the Tm in assay [2] amounted to 27.9 °C.

On to `Cc1ccc2ccc(NC(=O)OCCCNCCCOC(=O)Nc3cc4ccccc4cn3)nc2n1`, for which the result in assay [3], in assay [12] and in assay [22] was inactive. Also, the ΔTm is 2.5 °C in assay [4]; 5.8 °C in assay [1]; 3.5 °C in assay [5]; -0.2 °C in assay [6]; 2.8 °C in assay [11]; 3.9 °C in [17]. Moreover, in assay [24], the ΔTm is 0 °C. For the same molecule, the outcome in assay [7], in assay [13], in [14] and in assay [20] was Active. Besides, the Activity entry in assay [8] was “Dose-dependent-effect”. Besides, the Tm in assay [9] came out at 24.6 °C; in assay [10] it was 44.8 °C; in assay [15], 24.1 °C; in assay [19] it was 38.2 °C; in assay [2], 33.6 °C; in [25], 20.1 °C. Further, in [26], the Tm is 32.1 °C. For the same molecule, the deltaH in assay [16] is -37.8 kcal/mol. Also, the -TdeltaS in assay [18] amounted to 29.2 kcal/mol. Besides, in assay [21], the pKd is 5.72. For the same molecule, in assay [23], the deltaG was -7.8 kcal/mol.
